Data reported in patent US10316017B2, “COT modulators and methods of use thereof” (Gilead Sciences, Inc., priority 2015, dated 2019).

Legend:
[1] = molecular target: T1, human Cot catalytic domain (30-397 amino acids) (Homo sapiens, UniProt P41279); experiment: High Throughput Cot Biochemical Assay (KinEASE TR-FRET); settings: Cot KinEASE TR-FRET (HTRF) biochemical assay, 400 μM ATP; read-out: IC50 HTRF
T1 construct: Purified recombinant human Cot catalytic domain (30-397 amino acids) was purchased from Cama Biosciences; purchased Cama Biosciences (so in the source)
T1 sequence (P41279 30-397): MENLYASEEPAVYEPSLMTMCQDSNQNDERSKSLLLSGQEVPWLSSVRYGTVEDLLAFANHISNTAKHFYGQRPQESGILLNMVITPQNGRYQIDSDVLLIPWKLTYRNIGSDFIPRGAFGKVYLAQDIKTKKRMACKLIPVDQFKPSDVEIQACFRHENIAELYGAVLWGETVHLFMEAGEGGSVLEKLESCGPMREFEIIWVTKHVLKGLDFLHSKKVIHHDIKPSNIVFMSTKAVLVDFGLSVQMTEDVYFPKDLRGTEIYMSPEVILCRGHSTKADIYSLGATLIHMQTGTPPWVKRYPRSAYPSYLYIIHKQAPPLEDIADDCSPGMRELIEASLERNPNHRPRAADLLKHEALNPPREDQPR
Summary of the method: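 First, purified human Cot (aa 30-397) at 5 nM phosphorylates an XL665-labeled STK3 peptide (1 μM) at 400 μM ATP, pH 7.0, 0.1% DMSO. Then a europium-conjugated phospho-specific antibody binds the product, giving the TR-FRET signal.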

[2] = tested on: TNFα production in LPS-stimulated human monocytes; experiment: Cot Monocyte TNFα Cell Based Assay; settings: Homo sapiens, Monocyte, TNFα in LPS-stimulated human monocytes; read-out: EC50 TNF
Summary of the method: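 5,000 cells/well; cmpd 1 h, 37 °C, 0.5% DMSO final; LPS 50 pg/ml, 4 h, 37 °C; media TNFα by HTRF sandwich (cryptate/XL665), RT overnight; % control vs unstimulated/stimulated wells.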

| SMILES | IC50 [1] | EC50 [2] |
| --- | --- | --- |
| [2H][C@](Nc1cc(Cl)c2ncc(C#N)c(NC(CCC#N)c3ccccc3)c2c1)(c1ccc(F)cc1)c1cn(C2CC2)nn1 (stereo partly drawn) [Example 302, 8-chloro-4-((3-cyano-1-phenylpropyl)amino)-6-(((S)-(1-cyclopropyl-1H-1,2,3-triazol-4-yl)(4-fluorophenyl)methyl-d)amino)quinoline-3-carbonitrile] | 3 nM | 74 nM |
| [2H][C@](Nc1cc(Cl)c2ncc(C#N)c(Nc3cnc(F)c(Cl)c3)c2c1)(c1cccc(C#N)c1)c1cn(C2CC2)nn1 [Example 303, (S)-8-chloro-4-((5-chloro-6-fluoropyridin-3-yl)amino)-6-(((3-cyanophenyl)(1-cyclopropyl-1H-1,2,3-triazol-4-yl)methyl-d)amino)quinoline-3-carbonitrile] | 4 nM | 174 nM |
| CC(C)n1cc([C@@H](Nc2cc(Cl)c3ncc(C#N)c(N[C@@H](CC#N)c4ccccc4)c3c2)c2ccc(F)cc2)nn1 [Example 304, 8-chloro-4-(((S)-2-cyano-1-phenylethyl)amino)-6-(((S)-(4-fluorophenyl)(1-isopropyl-1H-1,2,3-triazol-4-yl)methyl)amino)quinoline-3-carbonitrile] | 864 nM | > 10000 nM |
| CC(C)n1cc([C@@H](Nc2cc(Cl)c3ncc(C#N)c(N[C@H](CC#N)c4ccccc4)c3c2)c2ccc(F)cc2)nn1 [Example 305, 8-chloro-4-(((R)-2-cyano-1-phenylethyl)amino)-6-(((S)-(4-fluorophenyl)(1-isopropyl-1H-1,2,3-triazol-4-yl)methyl)amino)quinoline-3-carbonitrile] | 4 nM | 78 nM |
| [2H][C@](Nc1cc(Cl)c2ncc(C#N)c(NC(c3ccccc3)C(C)(C)C)c2c1)(c1ccc(F)cc1)c1cn(C2CC2)nn1 (stereo partly drawn) [Example 307, 8-chloro-6-(((S)-(1-cyclopropyl-1H-1,2,3-triazol-4-yl)(4-fluorophenyl)methyl-d)amino)-4-((2,2-dimethyl-1-phenylpropyl)amino)quinoline-3-carbonitrile] | 116 nM | 950 nM |
| [2H][C@](Nc1cc(Cl)c2ncc(C#N)c(NCC(C)(C)CO)c2c1)(c1ccc(F)cc1)c1cn(C2CC2)nn1 [Example 308, (S)-8-chloro-6-(((1-cyclopropyl-1H-1,2,3-triazol-4-yl)(4-fluorophenyl)methyl-d)amino)-4-((3-hydroxy-2,2-dimethylpropyl)amino) quinoline-3-carbonitrile] | 26 nM | 361 nM |
| [2H][C@](Nc1cc(Cl)c2ncc(C#N)c(NNC(C)(C)C)c2c1)(c1ccc(F)cc1)c1cn(C2CC2)nn1 [Example 310, (S)-4-(2-(tert-butyl)hydrazinyl)-8-chloro-6-(((1-cyclopropyl-1H-1,2,3-triazol-4-yl)(4-fluorophenyl)methyl-d)amino)quinoline-3-carbonitrile] | > 10000 nM | 2360 nM |
| [2H][C@](Nc1cc(Cl)c2ncc(C#N)c(NCC(C)(C)C)c2c1)(c1ccccc1)c1cn(C2CC2)nn1 [Example 312, (S)-8-chloro-6-(((1-cyclopropyl-1H-1,2,3-triazol-4-yl)(phenyl)methyl-d)amino)-4-(neopentylamino)quinoline-3-carbonitrile] | 5 nM | 177 nM |
| [2H][C@](Nc1cc(Cl)c2ncc(C#N)c(N[C@H]3CCC[C@H](O)C3)c2c1)(c1ccc(F)cc1)c1cn(C2CC2)nn1 [Example 313, 8-chloro-6-(((S)-(1-cyclopropyl-1H-1,2,3-triazol-4-yl)(4-fluorophenyl)methyl-d)amino)-4-(((1S,3S)-3-hydroxycyclohexyl)amino) quinoline-3-carbonitrile] | 39 nM | 527 nM |
| [2H][C@](Nc1cc(Cl)c2ncc(C#N)c(N[C@@H]3CCC[C@H](O)C3)c2c1)(c1ccc(F)cc1)c1cn(C2CC2)nn1 [Example 314, 8-chloro-6-(((S)-(1-cyclopropyl-1H-1,2,3-triazol-4-yl)(4-fluorophenyl)methyl-d)amino)-4-(((1R,3S)-3-hydroxycyclohexyl)amino) quinoline-3-carbonitrile] | 1330 nM | 6390 nM |
| [2H][C@](Nc1cc(Cl)c2ncc(C#N)c(N[C@H]3CCC[C@@H](O)C3)c2c1)(c1ccc(F)cc1)c1cn(C2CC2)nn1 [Example 315, 8-chloro-6-(((S)-(1-cyclopropyl-1H-1,2,3-triazol-4-yl)(4-fluorophenyl)methyl-d)amino)-4-(((1S,3R)-3-hydroxycyclohexyl)amino) quinoline-3-carbonitrile] | 134 nM | 1010 nM |
| [2H][C@](Nc1cc(Cl)c2ncc(C#N)c(N[C@@H]3CCC[C@@H](O)C3)c2c1)(c1ccc(F)cc1)c1cn(C2CC2)nn1 [Example 316, 8-chloro-6-(((S)-(1-cyclopropyl-1H-1,2,3-triazol-4-yl)(4-fluorophenyl)methyl-d)amino)-4-(((1R,3R)-3-hydroxycyclohexyl)amino) quinoline-3-carbonitrile] | 1820 nM | 3640 nM |
| [2H][C@](Nc1cc(Cl)c2ncc(C#N)c(N[C@@H]3CCCCC3(C)C)c2c1)(c1ccc(F)cc1)c1cn(C2CC2)nn1 [Example 318, 8-chloro-6-(((S)-(1-cyclopropyl-1H-1,2,3-triazol-4-yl)(4-fluorophenyl)methyl-d)amino)-4-(((R)-2,2-dimethylcyclohexyl)amino) quinoline-3-carbonitrile] | 34 nM | 451 nM |
| [2H][C@](Nc1cc(Cl)c2ncc(C#N)c(NC3CCCCC3C)c2c1)(c1ccc(F)cc1)c1cn(C2CC2)nn1 (stereo partly drawn) [Example 321, 8-chloro-6-(((S)-(1-cyclopropyl-1H-1,2,3-triazol-4-yl)(4-fluorophenyl)methyl-d)amino)-4-((2-methylcyclohexyl)amino) quinoline-3-carbonitrile] | 159 nM | 391 nM |
| N#Cc1cnc2c(Cl)cc(N[C@@H](c3ccc(F)cc3)c3cn(C4CC4)nn3)cc2c1NC(CN1CCOCC1)c1ccccc1 (stereo partly drawn) [Example 322, 8-chloro-6-(((S)-(1-cyclopropyl-1H-1,2,3-triazol-4-yl)(4-fluorophenyl)methyl)amino)-4-((2-morpholino-1-phenylethyl)amino)quinoline-3-carbonitrile] | 140 nM | 959 nM |
| N#Cc1cnc2c(Cl)cc(N[C@@H](c3ccc(F)cc3)c3cn(C4CC4)nn3)cc2c1NC(CF)c1ccccc1 (stereo partly drawn) [Example 323, 8-chloro-6-(((S)-(1-cyclopropyl-1H-1,2,3-triazol-4-yl)(4-fluorophenyl)methyl)amino)-4-((2-fluoro-1-phenylethyl)amino)quinoline-3-carbonitrile] | 82 nM | 1600 nM |
| [2H][C@](Nc1cc(Cl)c2ncc(C#N)c(NCC(C)(C)C)c2c1)(c1cccc(C#N)c1)c1c[nH]nn1 [Example 324, (S)-8-chloro-6-(((3-cyanophenyl)(1H-1,2,3-triazol-4-yl)methyl-d)amino)-4-(neopentylamino) quinoline-3-carbonitrile] | 4 nM | 450 nM |
| N#Cc1ccccc1[C@H](Nc1cc(Cl)c2ncc(C#N)c(Nc3cnc(F)c(F)c3)c2c1)c1cn(C2CC2)nn1 [Example 325, (S)-8-chloro-6-(((2-cyanophenyl)(1-cyclopropyl-1H-1,2,3-triazol-4-yl)methyl)amino)-4-((5,6-difluoropyridin-3-yl)amino)quinoline-3-carbonitrile] | 8 nM | 356 nM |
